Tests used:
Format in all cases: functional
[1] = tested on: Enterococcus faecalis; assay: Antibacterial activity against vancomycin-resistant Enterococcus faecalis clinical isolate 27728 after overnight incubation by two-fold serial dilution method
[2] = tested on: Enterococcus faecium; assay: Antibacterial activity against vancomycin-resistant Enterococcus faecium clinical isolate 17301 after overnight incubation by two-fold serial dilution method
[3] = tested on: Enterococcus faecium; assay: Antibacterial activity against vancomycin-resistant Enterococcus faecium clinical isolate 18906 after overnight incubation by two-fold serial dilution method
[4] = tested on: Enterococcus faecalis; assay: Antibacterial activity against vancomycin-resistant Enterococcus faecalis clinical isolate 5648 after overnight incubation by two-fold serial dilution method
[5] = tested on: Enterococcus faecium; assay: Antibacterial activity against vancomycin-resistant Enterococcus faecium clinical isolate 14643 after overnight incubation by two-fold serial dilution method
[6] = tested on: Enterococcus faecium; assay: Antibacterial activity against vancomycin-resistant Enterococcus faecium clinical isolate 7/27 after overnight incubation by two-fold serial dilution method
[7] = tested on: Enterococcus faecalis; assay: Antibacterial activity against vancomycin-resistant Enterococcus faecalis clinical isolate 7077 after overnight incubation by two-fold serial dilution method
[8] = tested on: Enterococcus faecium; assay: Antibacterial activity against vancomycin-resistant Enterococcus faecium clinical isolate 3864 after overnight incubation by two-fold serial dilution method
[9] = tested on: Enterococcus faecium; assay: Antibacterial activity against vancomycin-resistant Enterococcus faecium clinical isolate 5484 after overnight incubation by two-fold serial dilution method
[10] = tested on: Enterococcus faecium; assay: Antibacterial activity against vancomycin-resistant Enterococcus faecium clinical isolate 16115 after overnight incubation by two-fold serial dilution method
[11] = tested on: Enterococcus faecium; assay: Antibacterial activity against vancomycin-resistant Enterococcus faecium clinical isolate 30/48 after overnight incubation by two-fold serial dilution method
[12] = tested on: Enterococcus faecium; assay: Antibacterial activity against vancomycin-resistant Enterococcus faecium clinical isolate 31386 after overnight incubation by two-fold serial dilution method
[13] = tested on: Enterococcus faecium; assay: Antibacterial activity against vancomycin-resistant Enterococcus faecium clinical isolate 28/211 after overnight incubation by two-fold serial dilution method
[14] = tested on: Enterococcus faecium; assay: Antibacterial activity against vancomycin-resistant Enterococcus faecium clinical isolate 31176 after overnight incubation by two-fold serial dilution method
[15] = tested on: Enterococcus faecalis; assay: Antibacterial activity against vancomycin-resistant Enterococcus faecalis clinical isolate 22/203 after overnight incubation by two-fold serial dilution method
[16] = tested on: Enterococcus faecium; assay: Antibacterial activity against vancomycin-resistant Enterococcus faecium clinical isolate 27/221 after overnight incubation by two-fold serial dilution method
[17] = tested on: Enterococcus faecalis; assay: Antibacterial activity against vancomycin-resistant Enterococcus faecalis clinical isolate 22626 after overnight incubation by two-fold serial dilution method
[18] = tested on: Enterococcus; assay: Antibacterial activity against vancomycin-resistant Enterococcus ATCC 29212 after overnight incubation by two-fold serial dilution method
[19] = tested on: Enterococcus faecium; assay: Antibacterial activity against vancomycin-resistant Enterococcus faecium clinical isolate 16475 after overnight incubation by two-fold serial dilution method
[20] = tested on: Enterococcus faecium; assay: Antibacterial activity against vancomycin-resistant Enterococcus faecium clinical isolate 8/224 after overnight incubation by two-fold serial dilution method
[21] = tested on: Enterococcus faecium; assay: Antibacterial activity against vancomycin-resistant Enterococcus faecium clinical isolate 10177 after overnight incubation by two-fold serial dilution method
[22] = tested on: Enterococcus faecalis; assay: Antibacterial activity against vancomycin-resistant Enterococcus faecalis clinical isolate 6093 after overnight incubation by two-fold serial dilution method
[23] = tested on: Enterococcus faecium; assay: Antibacterial activity against vancomycin-resistant Enterococcus faecium clinical isolate 13246 after overnight incubation by two-fold serial dilution method
[24] = tested on: Enterococcus faecalis; assay: Antibacterial activity against vancomycin-resistant Enterococcus faecalis clinical isolate 7846 after overnight incubation by two-fold serial dilution method
[25] = tested on: Enterococcus faecalis; assay: Antibacterial activity against vancomycin-resistant Enterococcus faecalis clinical isolate 7079 after overnight incubation by two-fold serial dilution method
[26] = tested on: Enterococcus faecalis; assay: Antibacterial activity against vancomycin-resistant Enterococcus faecalis clinical isolate 387702 after overnight incubation by two-fold serial dilution method
[27] = tested on: Enterococcus faecium; assay: Antibacterial activity against vancomycin-resistant Enterococcus faecium clinical isolate 151495 after overnight incubation by two-fold serial dilution method
[28] = tested on: Enterococcus faecium; assay: Antibacterial activity against vancomycin-resistant Enterococcus faecium clinical isolate 147969 after overnight incubation by two-fold serial dilution method
[29] = tested on: Enterococcus faecium; assay: Antibacterial activity against vancomycin-resistant Enterococcus faecium clinical isolate 12/266 after overnight incubation by two-fold serial dilution method
[30] = tested on: Enterococcus faecium; assay: Antibacterial activity against vancomycin-resistant Enterococcus faecium clinical isolate 27/16917 after overnight incubation by two-fold serial dilution method; settings: isolate 27/1691
[31] = tested on: Enterococcus faecium; assay: Antibacterial activity against vancomycin-resistant Enterococcus faecium clinical isolate 5396 after overnight incubation by two-fold serial dilution method
[32] = tested on: Enterococcus faecalis; assay: Antibacterial activity against vancomycin-resistant Enterococcus faecalis clinical isolate 21/235 after overnight incubation by two-fold serial dilution method
[33] = tested on: Enterococcus; assay: Antibacterial activity against vancomycin-resistant Enterococcus ATCC 51299 after overnight incubation by two-fold serial dilution method
[34] = tested on: Enterococcus faecium; assay: Antibacterial activity against vancomycin-resistant Enterococcus faecium clinical isolate 15/213 after overnight incubation by two-fold serial dilution method
[35] = tested on: Enterococcus faecium; assay: Antibacterial activity against vancomycin-resistant Enterococcus faecium clinical isolate 6/22 after overnight incubation by two-fold serial dilution method
[36] = tested on: Enterococcus faecium; assay: Antibacterial activity against vancomycin-resistant Enterococcus faecium clinical isolate 29/203 after overnight incubation by two-fold serial dilution method
[37] = tested on: Enterococcus faecalis; assay: Antibacterial activity against vancomycin-resistant Enterococcus faecalis clinical isolate 5814 after overnight incubation by two-fold serial dilution method
[38] = tested on: Enterococcus faecalis; assay: Antibacterial activity against vancomycin-resistant Enterococcus faecalis clinical isolate 7670 after overnight incubation by two-fold serial dilution method
[39] = tested on: Enterococcus faecium; assay: Antibacterial activity against vancomycin-resistant Enterococcus faecium clinical isolate 23/240 after overnight incubation by two-fold serial dilution method
[40] = tested on: Enterococcus faecalis; assay: Antibacterial activity against vancomycin-resistant Enterococcus faecalis clinical isolate 5642 after overnight incubation by two-fold serial dilution method
[41] = tested on: Enterococcus faecium; assay: Antibacterial activity against vancomycin-resistant Enterococcus faecium clinical isolate 12875 after overnight incubation by two-fold serial dilution method

Substance H-HWRLLLLKKH-OH has an MIC [1] of 25 µg/mL, an MIC [2] of 25 µg/mL and an MIC [3] of 25 µg/mL. It also gave an MIC [4] of 25 µg/mL, an MIC [5] of 25 µg/mL and an MIC [6] of 25 µg/mL. It also gave an MIC [7] of 25 µg/mL, an MIC [8] of 25 µg/mL and an MIC [9] of 25 µg/mL. It also gave an MIC [10] of 25 µg/mL, an MIC [11] of 25 µg/mL and an MIC [12] of 25 µg/mL. It also gave an MIC [13] of 25 µg/mL, an MIC [14] of 25 µg/mL and an MIC [15] of 25 µg/mL. It also gave an MIC [16] of 25 µg/mL, an MIC [17] of 25 µg/mL and an MIC [18] of 25 µg/mL. For the same substance, the MIC [19] was 25 µg/mL, the MIC [20] was 25 µg/mL and the MIC [21] was 25 µg/mL. The MIC [22] was 25 µg/mL, the MIC [23] was 25 µg/mL and the MIC [24] was 25 µg/mL. It also gave an MIC [25] of 25 µg/mL, an MIC [26] of 25 µg/mL and an MIC [27] of 25 µg/mL. The MIC [28] was 25 µg/mL, the MIC [29] was 25 µg/mL and the MIC [30] was 25 µg/mL. The MIC [31] was 25 µg/mL, the MIC [32] was 25 µg/mL and the MIC [33] was 25 µg/mL. It also gave an MIC [34] of 25 µg/mL, an MIC [35] of 25 µg/mL and an MIC [36] of 25 µg/mL. The MIC [37] was 25 µg/mL, the MIC [38] was 25 µg/mL and the MIC [39] was 25 µg/mL. It also gave an MIC [40] of 25 µg/mL and an MIC [41] of 25 µg/mL.
H-RWRLLLLKKF-OH showed an MIC [1] of 25 µg/mL, an MIC [2] of 25 µg/mL and an MIC [3] of 25 µg/mL. The MIC [4] was 25 µg/mL, the MIC [5] was 25 µg/mL and the MIC [6] was 25 µg/mL. The MIC [7] was 25 µg/mL, the MIC [8] was 25 µg/mL and the MIC [9] was 25 µg/mL. For the same substance, the MIC [10] was 25 µg/mL, the MIC [11] was 25 µg/mL and the MIC [12] was 25 µg/mL. The MIC [13] was 25 µg/mL, the MIC [14] was 25 µg/mL and the MIC [15] was 25 µg/mL. It also gave an MIC [16] of 25 µg/mL, an MIC [17] of 25 µg/mL and an MIC [18] of 25 µg/mL. The MIC [19] was 25 µg/mL, the MIC [20] was 25 µg/mL and the MIC [21] was 25 µg/mL. The MIC [22] was 25 µg/mL, the MIC [23] was 25 µg/mL and the MIC [24] was 25 µg/mL. It also gave an MIC [25] of 25 µg/mL, an MIC [26] of 25 µg/mL and an MIC [27] of 25 µg/mL. For the same substance, the MIC [28] was 25 µg/mL, the MIC [29] was 25 µg/mL and the MIC [30] was 25 µg/mL. The MIC [31] was 25 µg/mL, the MIC [32] was 25 µg/mL and the MIC [33] was 25 µg/mL. For the same substance, the MIC [34] was 25 µg/mL, the MIC [35] was 25 µg/mL and the MIC [36] was 25 µg/mL. The MIC [37] was 25 µg/mL, the MIC [38] was 25 µg/mL and the MIC [39] was 25 µg/mL. It also gave an MIC [40] of 25 µg/mL and an MIC [41] of 25 µg/mL.
Substance H-RWRLLLLKRH-OH has an MIC [1] of 12.5 µg/mL, an MIC [2] of 12.5 µg/mL and an MIC [3] of 12.5 µg/mL. It also gave an MIC [4] of 12.5 µg/mL, an MIC [5] of 12.5 µg/mL and an MIC [6] of 12.5 µg/mL. For the same substance, the MIC [7] was 12.5 µg/mL, the MIC [8] was 12.5 µg/mL and the MIC [9] was 12.5 µg/mL. For the same substance, the MIC [10] was 12.5 µg/mL, the MIC [11] was 12.5 µg/mL and the MIC [12] was 12.5 µg/mL. For the same substance, the MIC [13] was 12.5 µg/mL, the MIC [14] was 12.5 µg/mL and the MIC [15] was 12.5 µg/mL. For the same substance, the MIC [16] was 12.5 µg/mL, the MIC [17] was 12.5 µg/mL and the MIC [18] was 12.5 µg/mL. It also gave an MIC [19] of 12.5 µg/mL, an MIC [20] of 12.5 µg/mL and an MIC [21] of 12.5 µg/mL. The MIC [22] was 12.5 µg/mL, the MIC [23] was 12.5 µg/mL and the MIC [24] was 12.5 µg/mL. The MIC [25] was 12.5 µg/mL, the MIC [26] was 12.5 µg/mL and the MIC [27] was 12.5 µg/mL. For the same substance, the MIC [28] was 12.5 µg/mL, the MIC [29] was 12.5 µg/mL and the MIC [30] was 12.5 µg/mL. The MIC [31] was 12.5 µg/mL, the MIC [32] was 12.5 µg/mL and the MIC [33] was 12.5 µg/mL. For the same substance, the MIC [34] was 12.5 µg/mL, the MIC [35] was 12.5 µg/mL and the MIC [36] was 12.5 µg/mL. It also gave an MIC [37] of 12.5 µg/mL, an MIC [38] of 12.5 µg/mL and an MIC [39] of 12.5 µg/mL. The MIC [40] was 12.5 µg/mL and the MIC [41] was 12.5 µg/mL.
H-RWRLLLLLKRH-OH was tested, and the MIC [1] was 25 µg/mL, the MIC [2] was 25 µg/mL and the MIC [3] was 25 µg/mL. The MIC [4] was 25 µg/mL, the MIC [5] was 25 µg/mL and the MIC [6] was 25 µg/mL. For the same substance, the MIC [7] was 25 µg/mL, the MIC [8] was 25 µg/mL and the MIC [9] was 25 µg/mL. It also gave an MIC [10] of 25 µg/mL, an MIC [11] of 25 µg/mL and an MIC [12] of 25 µg/mL. It also gave an MIC [13] of 25 µg/mL, an MIC [14] of 25 µg/mL and an MIC [15] of 25 µg/mL. The MIC [16] was 25 µg/mL, the MIC [17] was 25 µg/mL and the MIC [18] was 25 µg/mL. The MIC [19] was 25 µg/mL, the MIC [20] was 25 µg/mL and the MIC [21] was 25 µg/mL. For the same substance, the MIC [22] was 25 µg/mL, the MIC [23] was 25 µg/mL and the MIC [24] was 25 µg/mL. The MIC [25] was 25 µg/mL, the MIC [26] was 25 µg/mL and the MIC [27] was 25 µg/mL. For the same substance, the MIC [28] was 25 µg/mL, the MIC [29] was 25 µg/mL and the MIC [30] was 25 µg/mL. The MIC [31] was 25 µg/mL, the MIC [32] was 25 µg/mL and the MIC [33] was 25 µg/mL. It also gave an MIC [34] of 25 µg/mL, an MIC [35] of 25 µg/mL and an MIC [36] of 25 µg/mL. For the same substance, the MIC [37] was 25 µg/mL, the MIC [38] was 25 µg/mL and the MIC [39] was 25 µg/mL. It also gave an MIC [40] of 25 µg/mL and an MIC [41] of 25 µg/mL.
